Experiments:
Test in all cases: relative viability (nuclei count vs DMSO), 5 days (fraction); higher = more cells survive
GW-2580 = compound: COC1=CC=C(C=C1)COC2=C(C=C(C=C2)CC3=CN=C(N=C3N)N)OC [GW-2580]
How it was run: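 Viability was defined as treated-well nuclei divided by vehicle-well nuclei, with the median taken over replicate plates. Cells from lung cancer lines sat overnight at 37 °C in 1536-well plates, received five √10-spaced library-drug doses by pinning on vehicle-anchored plates, and grew 5 days without medium change before one-step fixation, permeabilisation and Hoechst staining, 4× imaging and MetaXpress nuclear counts. Only plates with control CV under 25% and at least one doubling were kept.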

Fedratinib + Foretinib = compound: Cc1cnc(Nc2ccc(OCCN3CCCC3)cc2)nc1Nc1cccc(S(=O)(=O)NC(C)(C)C)c1 [Fedratinib] + COc1cc2c(Oc3ccc(NC(=O)C4(C(=O)Nc5ccc(F)cc5)CC4)cc3F)ccnc2cc1OCCCN1CCOCC1 [Foretinib] (partner 0.25 µM)
How it was run: (§1)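 One day after seeding in 1536-well plates, lung cancer cell lines were dosed by pin tool. Dosing was either single-drug or a fixed anchor-drug dose plus five library-drug doses (not always all listed) in √10 steps. After 5 days, nuclei were stained in one fix-and-stain step and counted on 4× images, and relative viability is the nuclei count of treated wells over that of vehicle wells, given as the median of duplicate plates.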

GW-2580 + Dasatinib = compound: COC1=CC=C(C=C1)COC2=C(C=C(C=C2)CC3=CN=C(N=C3N)N)OC [GW-2580] + Cc1nc(Nc2ncc(C(=O)Nc3c(C)cccc3Cl)s2)cc(N2CCN(CCO)CC2)n1 [Dasatinib] (partner 0.075 µM)
How it was run: as §1

GW-2580 + Alpelisib = compound: COC1=CC=C(C=C1)COC2=C(C=C(C=C2)CC3=CN=C(N=C3N)N)OC [GW-2580] + Cc1nc(NC(=O)N2CCC[C@H]2C(N)=O)sc1-c1ccnc(C(C)(C)C(F)(F)F)c1 [Alpelisib] (partner 2 µM)
How it was run: as §1

Fedratinib + Crizotinib = compound: Cc1cnc(Nc2ccc(OCCN3CCCC3)cc2)nc1Nc1cccc(S(=O)(=O)NC(C)(C)C)c1 [Fedratinib] + C[C@@H](Oc1cc(-c2cnn(C3CCNCC3)c2)cnc1N)c1c(Cl)ccc(F)c1Cl [Crizotinib] (partner 1 µM)
How it was run: as §1

Cell Line	relative viability (GW-2580; 0.08 µM)	relative viability (GW-2580; 0.8 µM)	relative viability (GW-2580; 2.53 µM)	relative viability (GW-2580; 8 µM)	relative viability (Fedratinib + Foretinib; first compound 0.1 µM)	relative viability (Fedratinib + Foretinib; first compound 0.3162 µM)	relative viability (Fedratinib + Foretinib; first compound 1 µM)	relative viability (GW-2580 + Dasatinib; first compound 0.08 µM)	relative viability (GW-2580 + Dasatinib; first compound 0.8 µM)	relative viability (GW-2580 + Dasatinib; first compound 2.53 µM)	relative viability (GW-2580 + Dasatinib; first compound 8 µM)	relative viability (GW-2580 + Alpelisib; first compound 0.08 µM)	relative viability (GW-2580 + Alpelisib; first compound 0.8 µM)	relative viability (GW-2580 + Alpelisib; first compound 2.53 µM)	relative viability (GW-2580 + Alpelisib; first compound 8 µM)	relative viability (Fedratinib + Crizotinib; first compound 0.1 µM)	relative viability (Fedratinib + Crizotinib; first compound 0.3162 µM)	relative viability (Fedratinib + Crizotinib; first compound 1 µM)
NCI-H2009	1.06	0.996	0.967	0.888	1.12	1.23	1.1	0.319	0.305	0.299	0.27	1.16	1.17	1.08	1.11	1.04	0.977	0.884
NCI-H2023	1.12	1.07	0.933	1.06	0.8	0.873	0.643	0.636	0.652	0.542	0.587	0.611	0.625	0.513	0.604	0.585	0.715	0.58
NCI-H2085	1.05	1.03	0.987	0.954	0.883	0.861	0.909	0.277	0.217	0.25	0.258	1.1	0.924	0.924	0.792	0.769	0.953	0.812
NCI-H2087	1	1.08	0.942	0.933	0.65	1.01	1.01	1.11	0.846	0.785	0.774	1.23	0.999	1.02	0.613	0.735	0.879	0.831
NCI-H2126	1.02	1.01	0.979	1.05	1.07	1.06	1.08	0.599	0.736	0.627	0.522	0.757	0.772	0.719	0.714	1.01	0.989	0.996
NCI-H2170	1.02	1.02	0.948	0.972	1.02	0.996	1.02	0.752	0.769	0.587	0.672	0.892	0.842	0.741	0.902	1.12	1.07	0.871
NCI-H2228	1.18	1.16	0.921	0.882	0.847	0.825	0.743	0.557	0.551	0.441	0.488	0.91	0.886	0.627	0.775	0.528	0.46	0.392
NCI-H2347	0.989	1.1	0.88	1.07	0.869	0.853	0.829	0.341	0.294	0.244	0.271	1.02	0.968	0.915	1.05	0.721	0.667	0.679
NCI-H2405	0.99	1.13	0.902	0.936	1.03	1.02	1.01	0.203	0.205	0.222	0.213	0.794	0.718	0.751	0.751	0.796	0.849	0.818
NCI-H3122	1.03	1.09	1.06	1.01	0.956	0.9	0.941	0.947	1.01	0.655	0.812	0.85	0.878	0.671	0.758	0.317	0.235	0.265
PC-3 [JPC-3]	1.12	1.14	1.09	0.964	0.982	1.08	1.06	0.986	1.14	0.845	1.03	1.05	1.09	0.998	1.01	0.998	0.944	0.985
PC-14	1.07	1.19	0.966	0.969	0.975	1.08	1	0.347	0.281	0.228	0.218	0.995	1.14	0.864	0.906	0.926	0.874	0.92
RERF-LC-KJ	1.08	1.15	0.921	0.977	0.883	0.904	0.864	0.896	0.893	0.797	0.71	0.771	0.803	0.732	0.793	0.834	0.883	0.786
SK-LU-1	1.09	1.12	0.826	1.14	0.819	0.78	0.504	0.178	0.207	0.149	0.167	0.936	1.09	0.85	1.18	–	0.836	0.584
SK-MES-1	1.1	1.08	0.96	0.984	0.865	1.07	0.795	0.444	0.477	0.304	0.292	1.15	0.907	0.94	0.885	1.04	0.992	0.923
SW 1573	1.05	0.994	0.868	0.946	0.906	0.947	0.807	0.464	0.45	0.452	0.407	0.841	0.797	0.698	0.674	0.747	0.733	0.709

Source: the supplement of paper PMC10307832
